According to patent US20120129811A1, “TRICYCLIC INHIBITORS OF PRO-MATRIX METALLOPROTEINASE ACTIVATION” (priority 2010, published 2012):
Counter-ions that a name gives are not always drawn.

What was measured:
[1] = target: T1, proMMP9(20-445;ΔFnII) (SEQ ID NO:6) (Homo sapiens, UniProt P14780, DEL216-390); test: ThermoFluor binding assay with proMMP9(20-445;ΔFnII)
T1 construct: start methionine (N); made in house; host or cells: E. coli BL21(DE3) RIL
T1 sequence (P14780 with tags, fused parts or gaps DEL216-390): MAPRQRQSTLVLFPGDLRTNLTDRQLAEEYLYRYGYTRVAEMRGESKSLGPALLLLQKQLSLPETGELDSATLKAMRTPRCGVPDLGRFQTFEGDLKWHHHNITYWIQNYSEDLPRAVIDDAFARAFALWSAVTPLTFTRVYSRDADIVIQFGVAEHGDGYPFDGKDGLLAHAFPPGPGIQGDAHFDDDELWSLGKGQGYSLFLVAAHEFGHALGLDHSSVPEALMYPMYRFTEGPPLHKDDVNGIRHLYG
Description: (§1) The ThermoFluor® (TF) assay is a 384-well plate-based binding assay that measures thermal stability of proteins (Biomol Screen 2001, 6, 429-40; Biochemistry 2005, 44, 5258-66). The experiments were carried out using instruments available from Johnson & Johnson Pharmaceutical Research & Development, LLC. TF dye used in all experiments was […] (1,8-ANS) (Invitrogen: A-47).
(§2) Compounds were arranged in a pre-dispensed plate (Greiner Bio-one: 781280), wherein compounds were serially diluted in 100% DMSO across 11 columns within a series. Columns 12 and 24 were used as DMSO reference and contained no compound. For multiple compound concentration-response experiments, the compound aliquots (50 nL) were robotically predispensed directly into black 384-well polypropylene PCR microplates (Abgene: TF-0384/k) using a Cartesian Hummingbird liquid handler (DigiLab, Holliston, Mass.). Following compound dispense, protein and dye solutions were added to achieve the final assay volume of 3 μL. The assay solutions were overlayed with 1 μL of silicone oil (Fluka, type DC 200: 85411) to prevent evaporation.
(§3) Assay plates were robotically loaded onto a thermostatically controlled PCR-type thermal block and then heated from 40 to 90° C. at a ramp-rate of 1° C./min for all experiments. Fluorescence was measured by continuous illumination with UV light (Hamamatsu LC6) supplied via fiber optics and filtered through a band-pass filter (380-400 nm; >60D cutoff). Fluorescence emission of the entire 384-well plate was detected by measuring light intensity using a CCD camera (Sensys, Roper Scientific) filtered to detect 500±25 nm, resulting in simultaneous and independent readings of all 384 wells. A single image with 20-sec exposure time was collected at each temperature, and the sum of the pixel intensity in a given area of the assay plate was recorded vs temperature and fit to standard equations to yield the Tm (J Biomol Screen 2001, 6, 429-40).
(§4) Thermodynamic parameters necessary for fitting compound binding for each proMMP were estimated by differential scanning calorimetry (DSC) and from ThermoFluor® data. The heat capacity of unfolding for each protein was estimated from the molecular weight and from ThermoFluor® dosing data.
ThermoFluor® with proMMP9(20-445; ΔFnII (SEQ ID NO:6)
The protein sample preparations included a desalting buffer exchange step via a PD-10 gravity column (GE Healthcare). The desalting buffer exchange was performed prior to diluting the protein to the final assay concentration of 2.8 μM proMMP9(20-445;ΔFnII) (SEQ ID NO:6). The concentration of proMMP9(20-445;ΔFnII) (SEQ ID NO:6) was determined spectrophotometrically based on a calculated extinction coefficient of ε280=39880 M^−1 cm^−1, a calculated molecular weight of 28.2 kDa, and calculated pI of 5.5. ThermoFluor® reference conditions were define as follows: 80 μg/mL (2.8 μM) proMMP9(20-445;ΔFnII) (SEQ ID NO:6), 50 μM 1,8-ANS, pH 7.0 Buffer (50 mM HEPES pH 7.0, 100 mM NaCl, 0.001% Tween-20, 2.5 mM MgCl2, 300 μM CaCl2). The thermodynamic parameters for proMMP9(20-445;ΔFnII) (SEQ ID NO:6) are as follows: Tm (° C.)=72 (+/−0.1), ΔUH(Tm) (cal mol^−1)=160000(+/−5000), ΔUSTm (cal mol^−1 K^−1)=434, ΔUCp (cal mol^−1 K^−1)=2400.

[2] = target: T2, proMMP9(67-444;ΔFnII) (SEQ ID NO:5) (Homo sapiens, UniProt P14780, DEL216-390); test: ThermoFluor binding assay with proMMP9(67-444;ΔFnII)
T2 construct: start methionine (N); made in house; host or cells: E. coli BL21(DE3) RIL
T2 sequence (P14780 with tags, fused parts or gaps DEL216-390): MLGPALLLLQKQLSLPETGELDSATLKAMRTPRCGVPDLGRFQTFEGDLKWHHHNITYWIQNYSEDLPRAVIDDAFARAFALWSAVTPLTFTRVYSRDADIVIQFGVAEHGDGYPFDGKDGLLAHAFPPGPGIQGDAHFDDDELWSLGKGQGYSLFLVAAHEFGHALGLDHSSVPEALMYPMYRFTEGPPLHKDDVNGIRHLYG
Description: as §1, §2, §3, §4
ThermoFluor® with proMMP9(67-444;ΔFnM (SEQ ID NO:5)
The protein sample preparations had to include a desalting buffer exchange step via a PD-10 gravity column (GE Healthcare). The desalting buffer exchange was performed prior to diluting the protein to the final assay concentration of 3.5 μM proMMP9(67-444;ΔFnII) (SEQ ID NO:5). The concentration of proMMP9(67-444;ΔFnII) (SEQ ID NO:5) was determined spectrophotometrically based on a calculated extinction coefficient of ε280=33900 M^−1 cm^−1, a calculated molecular weight of 22.6 kDa, and calculated pI of 5.20. ThermoFluor® reference conditions were defined as follows: 80 μg/mL (3.5 μM) proMMP9(67-444;ΔFnII) (SEQ ID NO:5), 50 μM 1,8-ANS, pH 7.0 Buffer (50 mM HEPES pH 7.0, 100 mM NaCl, 0.001% Tween-20, 2.5 mM MgCl2, 300 μM CaCl2). The thermodynamic parameters for proMMP9(67-444;ΔFnII) (SEQ ID NO:5) are as follows: Tm (° C.)=63 (+/−0.1), ΔUH(Tm)(cal mol^−1)=105000(+/−5000), ΔUS(Tm) (cal mol^−1 K^−1)=450, ΔUCp (cal mol^−1 K^−1)=2000.

[3] = target: T3, full-length proMMP9(1-707) activation by catalytic MMP3 (Homo sapiens, UniProt P14780, R574P); test: proMMP9/MMP3 P126 Activation Assay; type: biochemical
T3 construct: made in house; host or cells: proMMP9: HEK293 (secreted); MMP3: E. coli
Description: proMMP9/MMP3 P126 Activation Assay
The reaction volume was 50 μL. […] Reactivity of residual MMP3 towards P-126 substrate was minimal under these conditions.

T3 sequence (P14780 20-707 R574P): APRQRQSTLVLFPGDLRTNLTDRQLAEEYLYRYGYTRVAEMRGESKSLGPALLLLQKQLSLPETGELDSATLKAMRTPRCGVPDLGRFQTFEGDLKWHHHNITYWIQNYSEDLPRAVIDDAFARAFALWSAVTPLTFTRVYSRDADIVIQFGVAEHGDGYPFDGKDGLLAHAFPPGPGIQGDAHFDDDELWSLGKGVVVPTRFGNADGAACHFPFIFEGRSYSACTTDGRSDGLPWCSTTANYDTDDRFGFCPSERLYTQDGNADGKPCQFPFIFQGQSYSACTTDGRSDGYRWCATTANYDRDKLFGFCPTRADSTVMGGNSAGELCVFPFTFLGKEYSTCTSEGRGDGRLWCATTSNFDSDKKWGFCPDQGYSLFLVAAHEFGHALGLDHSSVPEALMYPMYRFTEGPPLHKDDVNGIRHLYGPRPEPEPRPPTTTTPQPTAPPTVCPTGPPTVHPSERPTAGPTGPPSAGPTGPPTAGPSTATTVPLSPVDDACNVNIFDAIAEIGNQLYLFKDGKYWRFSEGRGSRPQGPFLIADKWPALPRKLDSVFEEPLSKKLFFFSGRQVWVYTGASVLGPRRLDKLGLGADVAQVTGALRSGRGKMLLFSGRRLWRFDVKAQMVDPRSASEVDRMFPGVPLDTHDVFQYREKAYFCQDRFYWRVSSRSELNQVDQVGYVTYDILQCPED

Compound	Kd [1]	Kd [2]	IC50 [3]
CCn1c(C)nc2ccc3sc(Nc4cc(S(N)(=O)=O)ccc4OC)nc3c21 [Example 129, 3-(8-Ethyl-7-methyl-8H-imidazo[4′,5′:3,4]benzo[2,1-d]thiazol-2-ylamino)-4-methoxy-benzenesulfonamide.TFA]	1.2 µM	520 nM	420 nM
COc1ccc(F)cc1Nc1nc2c(ccc3cnccc32)s1 [Example 99, (5-Fluoro-2-methoxy-phenyl)-thiazolo[4,5-f]isoquinolin-2-yl-amine.TFA]	20 µM	3200 nM	870 nM
NS(=O)(=O)c1ccc(OC(F)(F)F)c(Nc2nc3c(ccc4cnccc43)s2)c1 [Example 98, 3-(Thiazolo[4,5-f]isoquinolin-2-ylamino)-4-trifluoromethoxy-benzenesulfonamide.TFA]	7.6 µM	3000 nM	> 20000 nM
Cn1cnc2ccc3sc(Nc4cc(S(N)(=O)=O)ccc4OC(F)(F)F)nc3c21 [Example 128, 3-(8-Methyl-8H-imidazo[4′,5′:3,4]benzo[2,1-d]thiazol-2-ylamino)-4-trifluoromethoxy-benzenesulfonamide.TFA]	4.9 µM	1500 nM	680 nM
COc1ccc(-c2cn[nH]c2)cc1Nc1nc2c(ccc3c2ncn3C)s1 [Example 70, [2-Methoxy-5-(1H-pyrazol-4-yl)-phenyl]-(6-methyl-6H-imidazo[4′,5%3,4]benzo[2,1-d]thiazol-2-yl)-amine.HCl]	0.56 µM	120 nM	310 nM
CC(C)Oc1ccc(C(N)=O)cc1Nc1nc2c(ccc3[nH]nnc32)s1 [Example 47, 4-Isopropoxy-3-(3H-thiazolo[4′,5′:3,4]benzo[1,2-d][1,2,3]triazol-7-ylamino)-benzamide.HCl]	1 µM	1600 nM	600 nM
COc1ccc(C#N)cc1Nc1nc2c(ccc3c2ncn3C)s1 [Example 67, 4-Methoxy-3-(6-methyl-6H-imidazo[4′,5′:3,4]benzo[2,1-d]thiazol-2-ylamino)-benzonitrile.HCl]	0.087 µM	77 nM	100 nM
CCOc1ccccc1Nc1nc2c(ccc3sc(N)nc32)s1 [Example 3, N^7-(2-Ethoxy-phenyl)-benzo[2,1-d;3,4-d′]bisthiazole-2,7-diamine.TFA]	3.2 µM	1600 nM	1400 nM
COc1ccccc1Nc1nc2c(ccc3nc(C)n(C)c32)s1 [Example 124, (7,8-Dimethyl-8H-imidazo[4′,5′:3,4]benzo[2,1-d]thiazol-2-yl)-(2-methoxy-phenyl)-amine.TFA]	5.7 µM	2800 nM	470 nM
COc1ccc(S(N)(=O)=O)cc1Nc1nc2c(ccc3nc(C)n(C)c32)s1 [Example 123, 3-(7,8-Dimethyl-8H-imidazo[4′,5′:3,4]-benzo[2,1-d]thiazol-2-ylamino)-4-methoxy-benzenesulfonamide.TFA]	5.3 µM	4700 nM	810 nM
CC(C)Oc1ccncc1Nc1nc2c(ccc3c2ncn3C)s1 [Example 157, N-(4-Isopropoxypyridin-3-yl)-6-methyl-6H-imidazo[4′,5′:5,6]benzo[1,2-d]thiazol-2-amine.HCl]	0.35 µM	18 nM	42 nM
COc1ncccc1Nc1nc2c(ccc3c2ncn3C)s1 [Example 74, (2-Methoxy-pyridin-3-yl)-(6-methyl-6H-imidazo[4′,5′:3,4]-benzo[2,1-d]thiazol-2-yl)-amine.HCl]	6 µM	3700 nM	4700 nM
COc1ccc(P(=O)(O)O)cc1Nc1nc2c(ccc3c2ncn3C)s1 [Example 68, [4-Methoxy-3-(6-methyl-6H-imidazo[4′,5′:3,4]benzo[2,1-d]thiazol-2-ylamino)-phenyl]-phosphonic acid.HCl]	7.5 µM	12000 nM	7500 nM
COc1ccc(S(C)(=O)=O)cc1Nc1nc2c(ccc3c2cnn3CC(C)C)s1 [Example 108, (6-Isobutyl-6H-3-thia-1,6,7-triaza-as-indacen-2-yl)-(5-methanesulfonyl-2-methoxy-phenyl)-amine.TFA]	> 95 µM	1400 nM	650 nM
COc1ccc(S(C)(=O)=O)cc1Nc1nc2c(ccc3nc(C)n(C)c32)s1 [Example 134, (7,8-Dimethyl-8H-imidazo[4′,5′:3,4]benzo[2,1-d]thiazol-2-yl)-(5-methanesulfonyl-2-methoxy-phenyl)-amine.TFA]	1.6 µM	900 nM	260 nM
COc1ccc(NC(N)=O)cc1Nc1nc2c(ccc3c2ncn3C)s1 [Example 87, [4-Methoxy-3-(6-methyl-6H-imidazo[4′,5′:3,4]benzo[2,1-d]thiazol-2-ylamino)-phenyl]-urea.HCl]	6 µM	1600 nM	650 nM
COc1ccc(S(N)(=O)=O)cc1Nc1nc2c(ccc3ncn(C)c32)s1 [Example 130, 4-Methoxy-3-(8-methyl-8H-imidazo[4′,5′:3,4]benzo[2,1-d]thiazol-2-ylamino)-benzenesulfonamide.TFA]	> 95 µM	1200 nM	830 nM
Cn1cnc2c3nc(Nc4cc(C(N)=O)ccc4OC(F)(F)F)sc3ccc21 [Example 65, 3-(6-Methyl-6H-imidazo[4′,5′:3,4]-benzo[2,1-d]thiazol-2-ylamino)-4-trifluoromethoxy-benzamide.HCl]	0.077 µM	250 nM	150 nM
COc1ccc(S(C)(=O)=O)cc1Nc1nc2c(ccc3c2cnn3CCC(C)C)s1 [Example 109, (5-Methanesulfonyl-2-methoxy-phenyl)-[6-(3-methyl-butyl)-6H-3-thia-1,6,7-triaza-as-indacen-2-yl]-amine.TFA]	> 95 µM	2300 nM	~2000 nM
